In brackets after ≈: the same amount, converted by molar mass.
How the values were obtained:
physchem [1] = test: physchem
in vitro [2] = conditions: Beagle, dog, plasma
physchem [3] = test: physchem; remark: listed apart in the source
physchem [4] = conditions: octan-1-ol/water
in vitro [5] = conditions: human, plasma
in vitro [6] = conditions: SD, HW or BN, rat, plasma
in vitro [7] = conditions: human, hepatocytes
in vitro [8] = conditions: hepatocytes
in vitro [9] = conditions: human
physchem [10] = conditions: pH 7.4 buffer

SMILES	pKa (physchem [1])	fraction unbound at 5 h (in vitro [2])	logD (physchem [4]; pH 7.4, LogD7.4)	fraction unbound at 5 h (in vitro [6])	also measured
Cn1c(=O)c2nn[nH]c2n(C)c1=O	4.4				
COc1ccnc(NC2CCN(C(=O)c3ccc(C#N)cc3)CC2)c1		0.0532	1.73		pKa (physchem [3]): 7.1
CCCc1c2nccc(Cl)c2cc2c(=O)cc(C(=O)O)oc12	2.5				
O=C(O)c1cc(=O)c2cc(Cl)ccc2o1	< 2				
COc1ccc2c(=O)cc(C(=O)O)oc2c1	< 2				
O=C(O)COc1ccc(Cl)cc1CN1CCN(S(=O)(=O)c2ccccc2)CC1		0.04	0.49	0.132	fraction unbound at 5 h (in vitro [5]; PPB): 0.0383; pKa (physchem [3]): 6.8
O=C(O)COc1ccc(Cl)cc1CN1CCN(S(=O)(=O)c2ccc(F)cc2)CC1		0.0768	0.99	0.089	hepatocyte CLint (in vitro [7]): < 3 µL/min/1e6 cells; hepatocyte CLint (in vitro [8]): < 3 µL/min/1e6 cells; fraction unbound at 5 h (in vitro [5]; PPB): 0.0101
C[C@H]1CN(Cc2cc(Cl)ccc2OCC(=O)O)CCN1C(=O)Cc1ccc(Cl)cc1		0.0262		0.0383	hepatocyte CLint (in vitro [7]): < 3 µL/min/1e6 cells; hepatocyte CLint (in vitro [8]): < 3 µL/min/1e6 cells; fraction unbound at 5 h (in vitro [5]): 0.0187; microsomal CLint (in vitro [9]; liver microsomes): < 3 µL/min/mg
N#Cc1cccc(-c2cc(C(F)(F)F)ccc2OCC(=O)O)c1		0.0358	0.05	0.035	hepatocyte CLint (in vitro [7]): < 3 µL/min/1e6 cells; hepatocyte CLint (in vitro [8]): < 3 µL/min/1e6 cells; fraction unbound at 5 h (in vitro [5]; PPB): 0.0139; microsomal CLint (in vitro [9]; liver microsomes): < 3 µL/min/mg
CCC(Oc1ccc(C(F)(F)F)cc1-c1ccc(S(=O)(=O)CC)cc1C)C(=O)O (configuration not stated)	3.4		0.31		
CCS(=O)(=O)c1ccc(-c2cc(C(F)(F)F)ccc2OC(C)(C)C(=O)O)c(C)c1	3.2				
N#Cc1ccc(C(F)(F)F)nc1O[C@H](CCN)c1ccno1		0.535	-0.49		fraction unbound at 5 h (in vitro [5]; PPB): 0.557; pKa (physchem [3]): 9.5
O=C(O)/C=C(/c1ccccc1)C(F)(F)F	2.41				
CCN(C(=O)c1cnn(-c2ccccc2)c1NS(=O)(=O)c1ccc(-c2cnco2)cc1)C1CCCCC1		0.0025	1.46	0.0057	hepatocyte CLint (in vitro [7]): 9.5 µL/min/1e6 cells; hepatocyte CLint (in vitro [8]): 35 µL/min/1e6 cells; fraction unbound at 5 h (in vitro [5]; PPB): 0.013; solubility thermodynamic (physchem [10]): 204 µM (≈ 106 µg/mL); microsomal CLint (in vitro [9]; liver microsomes): 137 µL/min/mg
CCCc1nn(C)c2c(=O)[nH]c(-c3cc(S(=O)(=O)N4CCN(C)CC4)ccc3OCC)nc12		0.176	2.8	0.0988	hepatocyte CLint (in vitro [7]): 16.6 µL/min/1e6 cells; hepatocyte CLint (in vitro [8]): > 150 µL/min/1e6 cells; fraction unbound at 5 h (in vitro [5]; PPB): 0.0447; microsomal CLint (in vitro [9]; liver microsomes): 132 µL/min/mg
N#Cc1cccc(S(=O)(=O)NC[C@@H](O)CN2CCC(Oc3ccc(Cl)c(Cl)c3)CC2)c1	10.1				
Cn1c(C(=O)O)c(CCCOc2cccc3ccccc23)c2ccccc21	4.01		2.99		
O=C(NCC12CC3CC(CC(C3)C1)C2)c1cc(CN2CCNCC2)ccc1Cl		0.157	1.84	0.062	hepatocyte CLint (in vitro [7]): 4.46 µL/min/1e6 cells; hepatocyte CLint (in vitro [8]): 4 µL/min/1e6 cells; fraction unbound at 5 h (in vitro [5]; PPB): 0.0872; solubility thermodynamic (physchem [10]): 74.1 µM (≈ 29.8 µg/mL); pKa (physchem [3]): 8.85; microsomal CLint (in vitro [9]; microsomes): 18 µL/min/mg
Cc1nnc(C(=O)NC(C)(C)c2nc(C(=O)NCc3ccc(F)cc3)c(O)c(=O)n2C)o1	3.97				
CCOC(=O)N1CCC(c2cc(=O)n(-c3ccccc3)[nH]2)CC1	6.8				
O=C(O)c1coc2ccccc2c1=O	4				
CC1=NN(C(=O)CCS)C(C(=O)O)S1 (configuration not stated)	2.4				
CCN(CC)CCN1C(=O)[C@@](O)(c2ccccc2Cl)c2c1cc(C(N)=O)cc2C(F)(F)F		0.19		0.212	hepatocyte CLint (in vitro [7]): 11.5 µL/min/1e6 cells; hepatocyte CLint (in vitro [8]): 56.2 µL/min/1e6 cells; fraction unbound at 5 h (in vitro [5]): 0.289; microsomal CLint (in vitro [9]; microsomes): 93.3 µL/min/mg; logD (physchem [4]; pH 7.4): 2.4
Cc1cn(Cc2ccccc2)c(=O)[nH]c1=O	9.4				logD (physchem [4]; pH 7.4): 1.19

SMILES	pKa (physchem [1])	fraction unbound at 5 h (in vitro [2])	logD (physchem [4]; pH 7.4, LogD7.4)	fraction unbound at 5 h (in vitro [6])	also measured
Cc1n[nH]c(C)c1Cc1sc2c(c1C(=O)N1C[C@H](O)CO1)c(=O)n(C)c(=O)n2CC(C)C		0.656	1.07		fraction unbound at 5 h (in vitro [5]; PPB): 0.489; pKa (physchem [3]): 3.4; microsomal CLint (in vitro [9]; liver microsomes): 4 µL/min/mg
O=C(NCC12CC3CC(CC(C3)C1)C2)c1cc(OC2CCNCC2)ccc1Cl		0.0768	1.83		pKa (physchem [3]): 9; microsomal CLint (in vitro [9]; microsomes): 28 µL/min/mg
C[C@H](CO)Nc1nc(SCc2ccccc2)nc2[nH]c(=O)sc12		0.0219	2.86		hepatocyte CLint (in vitro [7]): 19.4 µL/min/1e6 cells; hepatocyte CLint (in vitro [8]): < 3 µL/min/1e6 cells; fraction unbound at 5 h (in vitro [5]; PPB): 0.0029; solubility thermodynamic (physchem [10]): 53.7 µM (≈ 18.7 µg/mL); microsomal CLint (in vitro [9]; liver microsomes): 4 µL/min/mg
C(=C\c1nn[nH]n1)/c1ccccc1	4.5		-0.4		
O=C(NCC12CC3CC(CC(C3)C1)C2)c1cc(N2CCNCC2)ncc1Cl		0.0736			pKa (physchem [3]): 8.5; microsomal CLint (in vitro [9]; liver microsomes): 10 µL/min/mg
N#Cc1sccc1NS(=O)(=O)c1ccc(Cl)cc1	5.1				
CCCC(=O)Nc1ccc(OCC(O)CNC(C)C)c(C(C)=O)c1 (configuration not stated) [ACEBUTOLOL]		0.788		0.711	pKa (physchem [3]): 9.45
CC1(C)S[C@@H]2[C@H](NC(=O)[C@H](NC(=O)N3CCNC3=O)c3ccccc3)C(=O)N2[C@H]1C(=O)O [AZLOCILLIN]	2.41				
CC(C)NCC(O)COc1ccc(COCCOC(C)C)cc1 (configuration not stated) [BISOPROLOL]		0.743	0.1	0.768	hepatocyte CLint (in vitro [8]): 25.1 µL/min/1e6 cells; pKa (physchem [3]): 9.87
Cn1nnnc1SCC1=C(C(=O)O)N2C(=O)[C@@H](NC(=O)[C@H](O)c3ccccc3)[C@H]2SC1 [CEFAMANDOLE]	3.29				
O=C(O)c1cc(=O)c2ccccc2o1 [CHROMOCARB]	< 2				
CCn1nc(C(=O)O)c(=O)c2cc3c(cc21)OCO3 [CINOXACIN]	4.36				
Cc1onc(-c2c(F)cccc2Cl)c1C(=O)N[C@@H]1C(=O)N2[C@@H]1SC(C)(C)[C@@H]2C(=O)O [FLOXACILLIN]	2.46				
CCC(=O)O[C@]1(C(=O)SCF)[C@H](C)C[C@H]2[C@@H]3C[C@H](F)C4=CC(=O)C=C[C@]4(C)[C@@]3(F)[C@@H](O)C[C@@]21C [FLUTICASONE PROPIONATE]		0.0116		0.0153	hepatocyte CLint (in vitro [7]): > 150 µL/min/1e6 cells; hepatocyte CLint (in vitro [8]): 107 µL/min/1e6 cells; fraction unbound at 5 h (in vitro [5]; PPB): 0.0191
Cc1ncc2n1-c1ccc(Cl)cc1C(c1ccccc1F)=NC2 [MIDAZOLAM]		0.02		0.0457	hepatocyte CLint (in vitro [7]): 32.4 µL/min/1e6 cells; hepatocyte CLint (in vitro [8]): 121 µL/min/1e6 cells; fraction unbound at 5 h (in vitro [5]): 0.0175; solubility thermodynamic (physchem [10]): 72.4 µM (≈ 23.6 µg/mL); pKa (physchem [3]): 6.11
CCNC(=O)C[C@@H]1N=C(c2ccc(Cl)cc2)c2cc(OC)ccc2-n2c(C)nnc21 [MOLIBRESIB]		0.324		0.314	hepatocyte CLint (in vitro [8]): 10.2 µL/min/1e6 cells; fraction unbound at 5 h (in vitro [5]): 0.24; pKa (physchem [3]): 2.1; microsomal CLint (in vitro [9]; microsomes): 14.1 µL/min/mg
COC(=O)C1=C(C)NC(C)=C(C(=O)OCCN(C)Cc2ccccc2)C1c1cccc([N+](=O)[O-])c1 (configuration not stated) [NICARDIPINE]		0.004		0.0039	solubility thermodynamic (physchem [10]): 7.4 µM (≈ 3.55 µg/mL); pKa (physchem [3]): 7.26
CC1(C)S[C@@H]2[C@H](NC(=O)Cc3ccccc3)C(=O)N2[C@H]1C(=O)O [PENICILLIN G]	3.32				
CC[C@H](C)C(=O)O[C@H]1C[C@H](O)C=C2C=C[C@H](C)[C@H](CC[C@@H](O)C[C@@H](O)CC(=O)O)[C@H]21 [PRAVASTATIN]		0.608	-0.76	0.349	hepatocyte CLint (in vitro [7]): < 3 µL/min/1e6 cells; hepatocyte CLint (in vitro [8]): 27 µL/min/1e6 cells; microsomal CLint (in vitro [9]; microsomes): < 3 µL/min/mg
CCCc1c2c(cc3c(=O)cc(C(=O)O)oc13)CCCC2 [PROCROMIL]	< 2				
CN(C(=O)c1c(O)c2ccccc2n(C)c1=O)c1ccccc1 [ROQUINIMEX]	4.2				
Nc1ccc(S(=O)(=O)Nc2ncccn2)cc1 [SULFADIAZINE]	6.29				
O=C(O)c1cc(=O)c2ccccc2[nH]1 [TRANSTORINE]	2.5				

— ChEMBL document CHEMBL3301361, “Experimental in vitro DMPK and physicochemical data on a set of publicly disclosed compounds”
